Experimental data from patent US7883707B2, “Induction of antigen specific immunnologic tolerance” (priority 2002, dated 2011).

Assays:
[1] = tested on: antibody titer to rh-alpha-glucosidase (rhGAA); assay: ELISA antibody titer to rhGAA in canines on weekly rhGAA infusions; type: in vivo, canine
Method: Enzyme Infusions. […] Infusions were performed with 0.056 mg/kg/week recombinant human alpha glucosidase in a 50 mL infusion of saline and 10 mM NaPO4, pH 5.8. […] Animals were monitored for anaphylactic reaction.

[2] = tested on: fibroblasts; assay: Half maximal uptake (Kuptake) of alpha-glucosidase into fibroblasts; type: cell-based
[3] = control canine ST, no drug treatment

Kuptake (enzyme concentration at half maximal uptake) [2]: about 1 nanomolar
Substance: rhGAA: recombinant human alpha-glucosidase, lysosomal enzyme being developed to treat Pompe disease
Antibody levels to rhGAA at the highest point ([1]; 0.056 mg/kg/week iv rhGAA, weeks 1-12): > 150 OD Units | titer by week 4 [1, 3]: more than 100 OD units per microliter of serum | titer subsequently (after week 4) [1, 3]: 100-200 units per microliter of serum | higher titer of control dog by week 5 ([1]; control vs treated dog): 100 fold
